The text below walks through data of patent US12122761B2, “2-azaspiro[3.4]octane derivatives as M4 agonists” (NOVARTIS AG, priority 2019, dated 2024).

Assay [1] concerns the target T1, human cloned CHRM5 receptor (M5_CHO) (Homo sapiens, UniProt P08912).
T1 construct: expressed in transfected cells; host or cells: CHO (M5_CHO)
T1 sequence (P08912 1-532): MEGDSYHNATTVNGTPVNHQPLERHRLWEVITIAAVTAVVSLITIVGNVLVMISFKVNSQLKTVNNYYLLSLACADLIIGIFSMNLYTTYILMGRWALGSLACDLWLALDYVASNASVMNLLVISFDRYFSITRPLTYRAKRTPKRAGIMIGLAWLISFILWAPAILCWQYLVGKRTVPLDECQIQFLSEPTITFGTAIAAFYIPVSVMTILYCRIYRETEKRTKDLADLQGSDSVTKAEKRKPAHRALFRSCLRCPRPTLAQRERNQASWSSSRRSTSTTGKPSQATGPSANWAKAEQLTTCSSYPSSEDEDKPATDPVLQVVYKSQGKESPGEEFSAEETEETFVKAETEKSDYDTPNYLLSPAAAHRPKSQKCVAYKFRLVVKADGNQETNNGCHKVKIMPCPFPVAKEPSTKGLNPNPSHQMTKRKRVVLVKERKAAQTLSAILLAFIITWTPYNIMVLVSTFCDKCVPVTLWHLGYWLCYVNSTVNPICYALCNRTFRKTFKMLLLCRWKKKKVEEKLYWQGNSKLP
Description: CHRM5 Ca++ Flux Assay (agonist mode, FDSS 7000EX). It counts as cell-based. Particulars: for M5 FDSS PA / Emax: Percent Activity measured to EC100 of Carbachol; for pEC50: agonist mode, geometric mean if tested more than once, read-out: M5 FDSS EC50; for Emax: read-out: M5 FDSS PA. A digest of the protocol: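 Fluorescent intracellular Ca++ signal, recorded for 3 min, served as read-out for CHO-K1 cells stably carrying human M3 or M5 receptor. Triplicate 11-point dose responses were averaged and fitted to a four-parameter model, with percent activity referenced to the carbachol EC100.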

Assay [2] concerns the target T2, Cloned human M1 receptor (CHRM1) stably expressed in HEK293 cells (Homo sapiens, UniProt P11229).
T2 construct: expressed in transfected cells; host or cells: HEK293
T2 sequence (P11229 1-460): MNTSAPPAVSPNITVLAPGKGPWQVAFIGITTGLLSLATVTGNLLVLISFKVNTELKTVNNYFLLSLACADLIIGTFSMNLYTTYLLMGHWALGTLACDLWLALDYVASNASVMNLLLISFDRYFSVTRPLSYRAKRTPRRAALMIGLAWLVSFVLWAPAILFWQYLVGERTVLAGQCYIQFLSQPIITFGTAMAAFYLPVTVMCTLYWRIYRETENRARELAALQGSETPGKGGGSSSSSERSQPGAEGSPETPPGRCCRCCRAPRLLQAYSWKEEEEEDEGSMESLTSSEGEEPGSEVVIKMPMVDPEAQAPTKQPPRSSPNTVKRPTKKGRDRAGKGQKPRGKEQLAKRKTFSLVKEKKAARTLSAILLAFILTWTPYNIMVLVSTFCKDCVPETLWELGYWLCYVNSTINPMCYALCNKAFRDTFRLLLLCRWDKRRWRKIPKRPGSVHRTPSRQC
The assay can be described thus: CHRM1 Ca++ Flux Assay (agonist mode, FDSS 7000EX). It counts as cell-based. Conditions: for M1 FDSS PA: Percent Activity; for pEC50: geometric mean if tested more than once; for Emax: HEK293, Percent Activity, read-out: M1 FDSS PA. A digest of the protocol: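 Compounds tested as agonists at 11 concentrations in triplicate, with calcium traces captured over 3 minutes. Cells were HEK293 with stable human CHRM1 expression, plated overnight at 25K/well and loaded with calcium dye. Responses normalized to carbachol EC100 and fitted by four-parameter nonlinear regression.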

pEC50: −log10 of the molar value. Bounds are passed on as bounds.

Take `CC(C)(O)CCOc1ccccc1C1CCN([C@@H]2CCC3(C2)CN(C(=O)C2(F)CC2)C3)CC1` (single isomer, unassigned) [Example 7BB, (R)-(1-fluorocyclopropyl)(6-(4-(2-(3-hydroxy-3-methylbutoxy)phenyl)piperidin-1-yl)-2-azaspiro[3.4]octan-2-yl)methanone or (S)-(1-fluorocyclopropyl)(6-(4-(2-(3-hydroxy-3-methylbutoxy)phenyl)piperidin-1-yl)-2-azaspiro[3.4]octan-2-yl)methanone]: in assay [1], the “M5 FDSS PA” value was found to be 0% and the pEC50 was less than 4.60. Moreover, in assay [2], the “M1 FDSS PA” value was determined as 55% and the pEC50 was 7.89.
The like results for `O=C(N1CC2(CC[C@@H](N3CCC(c4cc(F)ccc4OC4CCOCC4)CC3)C2)C1)C1(F)CC1` (single isomer, unassigned) [Example 9C, (R)-(6-(4-(5-fluoro-2-((tetrahydro-2H-pyran-4-yl)oxy)phenyl)piperidin-1-yl)-2-azaspiro[3.4]octan-2-yl)(1-fluorocyclopropyl)methanone or (S)-(6-(4-(5-fluoro-2-((tetrahydro-2H-pyran-4-yl)oxy)phenyl)piperidin-1-yl)-2-azaspiro[3.4]octan-2-yl)(1-fluorocyclopropyl)methanone] were, in that order, 0%, less than 4.60, 27% and 7.32.
Consider `COc1ccc(Cl)cc1C1CCN([C@@H]2CCC3(C2)CN(c2ccnnc2)C3)CC1` [Example 5P, (R)-6-(4-(5-chloro-2-methoxyphenyl)piperidin-1-yl)-2-(pyridazin-4-yl)-2-azaspiro[3.4]octane], for which, in assay [1], the Emax amounted to 8% and the pEC50 is 4.87. Moreover, in assay [2], the Emax stood at 60% and the pEC50 is 6.71.
For `FC(F)(F)Oc1ccccc1C1CCN([C@@H]2CCC3(C2)CN(c2nncs2)C3)CC1` (single isomer, unassigned) [Example 10N, (R)-2-(6-(4-(2-(trifluoromethoxy)phenyl)piperidin-1-yl)-2-azaspiro[3.4]octan-2-yl)-1,3,4-thiadiazole or (S)-2-(6-(4-(2-(trifluoromethoxy)phenyl)piperidin-1-yl)-2-azaspiro[3.4]octan-2-yl)-1,3,4-thiadiazole], in assay [1], the “M5 FDSS PA” value is 0% and the pEC50 was less than 4.60. In assay [2], the “M1 FDSS PA” value is 0% and the negative-log EC50 (pEC50) was less than 4.60.
Take `COc1ccccc1C1CCN([C@@H]2CCC3(C2)CN(c2ncns2)C3)CC1` (single isomer, unassigned) [Example 10R, (R)-5-(6-(4-(2-methoxyphenyl)piperidin-1-yl)-2-azaspiro[3.4]octan-2-yl)-1,2,4-thiadiazole or (S)-5-(6-(4-(2-methoxyphenyl)piperidin-1-yl)-2-azaspiro[3.4]octan-2-yl)-1,2,4-thiadiazole]: in assay [1], the “M5 FDSS PA” value was 0% and the pEC50 is less than 4.60. For the same compound, in assay [2], the “M1 FDSS PA” value was found to be 0% and the pEC50 was less than 4.60.
In the case of `Cc1noc(C)c1COc1ccccc1C1CCN([C@@H]2CCC3(C2)CN(C(=O)C2(F)CC2)C3)CC1` (single isomer, unassigned) [Example 7U, (R)-(6-(4-(2-((3,5-dimethylisoxazol-4-yl)methoxy)phenyl)piperidin-1-yl)-2-azaspiro[3.4]octan-2-yl)(1-fluorocyclopropyl)methanone or (S)-(6-(4-(2-((3,5-dimethylisoxazol-4-yl)methoxy)phenyl)piperidin-1-yl)-2-azaspiro[3.4]octan-2-yl)(1-fluorocyclopropyl)methanone], in assay [1], the “M5 FDSS PA” value is 0% and the pEC50 is less than 4.60. Further, in assay [2], the “M1 FDSS PA” value is given as 0% and the pEC50 was less than 4.60.
In the case of `FC(F)Oc1ccccc1C1CCN([C@@H]2CCC3(C2)CN(c2nncs2)C3)CC1` (single isomer, unassigned) [Example 10O, (R)-2-(6-(4-(2-(difluoromethoxy)phenyl)piperidin-1-yl)-2-azaspiro[3.4]octan-2-yl)-1,3,4-thiadiazole or (S)-2-(6-(4-(2-(difluoromethoxy)phenyl)piperidin-1-yl)-2-azaspiro[3.4]octan-2-yl)-1,3,4-thiadiazole], in assay [1], the “M5 FDSS PA” value was 0% and the pEC50 is less than 4.60. In assay [2], the “M1 FDSS PA” value was 83% and the pEC50 was 7.36.
The like results for `CCOc1ccccc1C1CCN([C@@H]2CCC3(C2)CN(C(=O)C2(F)CC2)C3)CC1` (single isomer, unassigned) [Example 7S, (R)-(6-(4-(2-ethoxyphenyl)piperidin-1-yl)-2-azaspiro[3.4]octan-2-yl)(1-fluorocyclopropyl)methanone or (S)-(6-(4-(2-ethoxyphenyl)piperidin-1-yl)-2-azaspiro[3.4]octan-2-yl)(1-fluorocyclopropyl)methanone] were, in that order, 0%, less than 4.60, 0% and less than 4.60.
For the compound `O=C(N1CC2(CC[C@@H](N3CCC(c4ccccc4OC4CC5(COC5)C4)CC3)C2)C1)C1(F)CC1` (single isomer, unassigned) [Example 11C, (R)-(6-(4-(2-((2-oxaspiro[3.3]heptan-6-yl)oxy)phenyl)piperidin-1-yl)-2-azaspiro[3.4]octan-2-yl)(1-fluorocyclopropyl)methanone or (S)-(6-(4-(2-((2-oxaspiro[3.3]heptan-6-yl)oxy)phenyl)piperidin-1-yl)-2-azaspiro[3.4]octan-2-yl)(1-fluorocyclopropyl)methanone], in assay [1], the “M5 FDSS PA” value stood at 0% and the pEC50 was less than 4.60. In assay [2], the “M1 FDSS PA” value was found to be 1% and the negative-log EC50 (pEC50) is less than 4.60.
With `Cc1ncc(COc2ccccc2C2CCN([C@@H]3CCC4(C3)CN(C(=O)C3(F)CC3)C4)CC2)o1` (single isomer, unassigned) [Example 7V, (R)-(1-fluorocyclopropyl)(6-(4-(2-((2-methyloxazol-5-yl)methoxy)phenyl)piperidin-1-yl)-2-azaspiro[3.4]octan-2-yl)methanone or (S)-(1-fluorocyclopropyl)(6-(4-(2-((2-methyloxazol-5-yl)methoxy)phenyl)piperidin-1-yl)-2-azaspiro[3.4]octan-2-yl)methanone], in assay [1], the “M5 FDSS PA” value is 0% and the pEC50 is less than 4.60. In assay [2], the “M1 FDSS PA” value amounted to 18% and the pEC50 was 5.64.
Turning to `Fc1ccc(C2CCOCC2)c(C2CCN([C@@H]3CCC4(C3)CN(c3cncnc3)C4)CC2)c1` (single isomer, unassigned) [Example 10C, (R)-6-(4-(5-fluoro-2-(tetrahydro-2H-pyran-4-yl)phenyl)piperidin-1-yl)-2-(pyrimidin-5-yl)-2-azaspiro[3.4]octane or (S)-6-(4-(5-fluoro-2-(tetrahydro-2H-pyran-4-yl)phenyl)piperidin-1-yl)-2-(pyrimidin-5-yl)-2-azaspiro[3.4]octane], in assay [1], the “M5 FDSS PA” value is 0% and the pEC50 was less than 4.60. In addition, in assay [2], the “M1 FDSS PA” value turned out to be 76% and the negative-log EC50 (pEC50) was 7.10.
With `COc1ccccc1C1CCN([C@@H]2CCC3(C2)CN(c2ccnnc2)C3)CC1` [Example 5S, (R)-6-(4-(2-methoxyphenyl)piperidin-1-yl)-2-(pyridazin-4-yl)-2-azaspiro[3.4]octane], the Emax in assay [1] worked out at 0%; in assay [2], 45%. Also, the figures for the pEC50 in assay [1] and in assay [2] were less than 4.60 and 5.98, respectively.

As usually defined, the pEC50 is the negative decadic logarithm of the EC50, by convention in mol/L.
